Laboratory results taken from PubChem BioAssay AID1963837 (Molecular Pharmacology Branch, DTP, NCI, 2024).

System: 843126-344-R-J1-PDC complex spheroid viability
Test: Anticancer human tumor 843126-344-R-J1-PDC patient-derived melanoma cell line growth inhibition [POLQ]
Conditions: for IC50: curve of first compound; for viability, T/C: stronger effect = lower value
Method in brief: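 Patient-derived tumour cells were co-cultured with HUVEC and mesenchymal stem cells as multicellular spheroids at 37 °C. They were treated with POLQ inhibitors (novobiocin, ART-558, RP6685) alone or combined with other agents. Top concentrations were at or near clinical Cmax (otherwise 10 microM; SN-38 at 1 microM), decreasing in half-log steps.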

[1] = second compound 0.0316 µM, first compound 0.0316 µM
[2] = second compound 0.0316 µM, first compound 0.1 µM
[3] = second compound 0.0316 µM, first compound 0.316 µM
[4] = second compound 0.0316 µM, first compound 1 µM
[5] = second compound 0.0316 µM, first compound 3.16 µM
[6] = second compound 0.0316 µM, first compound 10 µM
[7] = second compound 0.1 µM, first compound 0.0316 µM
[8] = second compound 0.1 µM, first compound 0.1 µM
[9] = second compound 0.1 µM, first compound 0.316 µM
[10] = second compound 0.1 µM, first compound 1 µM
[11] = second compound 0.1 µM, first compound 3.16 µM
[12] = second compound 0.1 µM, first compound 10 µM
[13] = second compound 0.316 µM, first compound 0.0316 µM
[14] = second compound 0.316 µM, first compound 0.1 µM
[15] = second compound 0.316 µM, first compound 0.316 µM
[16] = second compound 0.316 µM, first compound 1 µM
[17] = second compound 0.316 µM, first compound 3.16 µM
[18] = second compound 0.316 µM, first compound 10 µM
[19] = second compound 1 µM, first compound 0.0316 µM
[20] = second compound 1 µM, first compound 0.1 µM
[21] = second compound 1 µM, first compound 0.316 µM
[22] = second compound 1 µM, first compound 1 µM
[23] = second compound 1 µM, first compound 3.16 µM
[24] = second compound 1 µM, first compound 10 µM
[25] = second compound 3.16 µM, first compound 0.0316 µM
[26] = second compound 3.16 µM, first compound 0.1 µM
[27] = second compound 3.16 µM, first compound 0.316 µM
[28] = second compound 3.16 µM, first compound 1 µM
[29] = second compound 3.16 µM, first compound 3.16 µM
[30] = second compound 3.16 µM, first compound 10 µM
[31] = second compound 10 µM, first compound 0.0316 µM
[32] = second compound 10 µM, first compound 0.1 µM
[33] = second compound 10 µM, first compound 0.316 µM
[34] = second compound 10 µM, first compound 1 µM
[35] = second compound 10 µM, first compound 3.16 µM
[36] = second compound 10 µM, first compound 10 µM
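Throughout, for viability, T/C: spheroids exposed to drugs for seven days before readout.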

Structure (SMILES): CC1COCCN1c1cc(C2(O)CC3CCC(C2)O3)c2cnn(-c3ccn[nH]3)c2n1 (stereo unspecified) + Cc1cccc(N(C)C(=O)C2C(O)CCN2c2nc(C)cc(C(F)(F)F)c2C#N)c1
- IC50 (second compound 0.0316 µM): 0.487 µM
- IC50 (second compound 0.1 µM): 0.47 µM
- IC50 (second compound 0.316 µM): 0.58 µM
- IC50 (second compound 1 µM): 0.385 µM
- IC50 (second compound 3.16 µM): 0.64 µM
- IC50 (second compound 10 µM): 0.763 µM
- viability, T/C [1]: 95.7%
- viability, T/C [2]: 78.6%
- viability, T/C [3]: 48.2%
- viability, T/C [4]: 44.8%
- viability, T/C [5]: 31%
- viability, T/C [6]: 20.7%
- viability, T/C [7]: 84.6%
- viability, T/C [8]: 66%
- viability, T/C [9]: 58.5%
- viability, T/C [10]: 40.1%
- viability, T/C [11]: 28.5%
- viability, T/C [12]: 22.2%
- viability, T/C [13]: 85.6%
- viability, T/C [14]: 74.9%
- viability, T/C [15]: 51.3%
- viability, T/C [16]: 45.2%
- viability, T/C [17]: 34%
- viability, T/C [18]: 19.2%
- viability, T/C [19]: 99.3%
- viability, T/C [20]: 62.8%
- viability, T/C [21]: 56.9%
- viability, T/C [22]: 40.8%
- viability, T/C [23]: 32.7%
- viability, T/C [24]: 21%
- viability, T/C [25]: 91.2%
- viability, T/C [26]: 80.5%
- viability, T/C [27]: 51.5%
- viability, T/C [28]: 47.5%
- viability, T/C [29]: 33.2%
- viability, T/C [30]: 20.6%
- viability, T/C [31]: 87.7%
- viability, T/C [32]: 82.8%
- viability, T/C [33]: 63.8%
- viability, T/C [34]: 45.2%
- viability, T/C [35]: 29.3%
- viability, T/C [36]: 17.7%

Structure (SMILES): O=C(c1cc(Cc2n[nH]c(=O)c3ccccc23)ccc1F)N1CCN(C(=O)C2CC2)CC1 + Cc1cccc(N(C)C(=O)C2C(O)CCN2c2nc(C)cc(C(F)(F)F)c2C#N)c1
- IC50 (second compound 0.0316 µM): > 10 µM
- IC50 (second compound 0.1 µM): > 10 µM
- IC50 (second compound 0.316 µM): > 10 µM
- IC50 (second compound 1 µM): > 10 µM
- IC50 (second compound 3.16 µM): > 10 µM
- IC50 (second compound 10 µM): > 10 µM
- viability, T/C [1]: 116%
- viability, T/C [2]: 99.2%
- viability, T/C [3]: 84.3%
- viability, T/C [4]: 82.3%
- viability, T/C [5]: 91.9%
- viability, T/C [6]: 74.2%
- viability, T/C [7]: 110%
- viability, T/C [8]: 98.7%
- viability, T/C [9]: 92.7%
- viability, T/C [10]: 90.9%
- viability, T/C [11]: 93.7%
- viability, T/C [12]: 67.1%
- viability, T/C [13]: 95.7%
- viability, T/C [14]: 78.8%
- viability, T/C [15]: 89.4%
- viability, T/C [16]: 91.5%
- viability, T/C [17]: 82%
- viability, T/C [18]: 75.7%
- viability, T/C [19]: 85.4%
- viability, T/C [20]: 97.8%
- viability, T/C [21]: 96.9%
- viability, T/C [22]: 97.8%
- viability, T/C [23]: 84.1%
- viability, T/C [24]: 77.6%
- viability, T/C [25]: 91.5%
- viability, T/C [26]: 83.3%
- viability, T/C [27]: 88.8%
- viability, T/C [28]: 89.6%
- viability, T/C [29]: 84.2%
- viability, T/C [30]: 71.2%
- viability, T/C [31]: 83.8%
- viability, T/C [32]: 102%
- viability, T/C [33]: 85.8%
- viability, T/C [34]: 92.1%
- viability, T/C [35]: 103%
- viability, T/C [36]: 78.8%

Structure (SMILES): CNCc1ccc(-c2[nH]c3cc(F)cc4c3c2CCNC4=O)cc1 + Nc1ccc(C#CCN(C(=O)Cc2ncc(C(F)(F)F)cc2C(F)(F)F)c2ccc(F)cc2)nn1
- IC50 (second compound 0.0316 µM): > 10 µM
- IC50 (second compound 0.1 µM): > 10 µM
- IC50 (second compound 0.316 µM): > 10 µM
- IC50 (second compound 1 µM): > 10 µM
- IC50 (second compound 3.16 µM): > 10 µM
- IC50 (second compound 10 µM): > 10 µM
- viability, T/C [1]: 104%
- viability, T/C [2]: 92.1%
- viability, T/C [3]: 100%
- viability, T/C [4]: 108%
- viability, T/C [5]: 98.5%
- viability, T/C [6]: 83.4%
- viability, T/C [7]: 96.4%
- viability, T/C [8]: 103%
- viability, T/C [9]: 101%
- viability, T/C [10]: 95%
- viability, T/C [11]: 94.3%
- viability, T/C [12]: 88.5%
- viability, T/C [13]: 95.8%
- viability, T/C [14]: 105%
- viability, T/C [15]: 97.3%
- viability, T/C [16]: 103%
- viability, T/C [17]: 94.4%
- viability, T/C [18]: 84.3%
- viability, T/C [19]: 103%
- viability, T/C [20]: 103%
- viability, T/C [21]: 95.9%
- viability, T/C [22]: 117%
- viability, T/C [23]: 102%
- viability, T/C [24]: 86.3%
- viability, T/C [25]: 92.6%
- viability, T/C [26]: 86.3%
- viability, T/C [27]: 95.2%
- viability, T/C [28]: 83.6%
- viability, T/C [29]: 98.2%
- viability, T/C [30]: 90.9%
- viability, T/C [31]: 91.3%
- viability, T/C [32]: 89.1%
- viability, T/C [33]: 91.9%
- viability, T/C [34]: 92.9%
- viability, T/C [35]: 91.5%
- viability, T/C [36]: 85.9%
